Measured values as given in patent US9580390B2, “Indazole compounds as kinase inhibitors and method of treating cancer with same” (University Health Network, priority 2011, dated 2017).

What was measured:
[1] = target: T1, human TTK (Homo sapiens, UniProt P33981); assay: TTK inhibition assay (indirect ELISA); assay type: biochemical; conditions: read-out: TTK IC50 Range
T1 construct: amino terminal GST fusion of full length human TTK; purchased Invitrogen
T1 sequence (P33981 1-857): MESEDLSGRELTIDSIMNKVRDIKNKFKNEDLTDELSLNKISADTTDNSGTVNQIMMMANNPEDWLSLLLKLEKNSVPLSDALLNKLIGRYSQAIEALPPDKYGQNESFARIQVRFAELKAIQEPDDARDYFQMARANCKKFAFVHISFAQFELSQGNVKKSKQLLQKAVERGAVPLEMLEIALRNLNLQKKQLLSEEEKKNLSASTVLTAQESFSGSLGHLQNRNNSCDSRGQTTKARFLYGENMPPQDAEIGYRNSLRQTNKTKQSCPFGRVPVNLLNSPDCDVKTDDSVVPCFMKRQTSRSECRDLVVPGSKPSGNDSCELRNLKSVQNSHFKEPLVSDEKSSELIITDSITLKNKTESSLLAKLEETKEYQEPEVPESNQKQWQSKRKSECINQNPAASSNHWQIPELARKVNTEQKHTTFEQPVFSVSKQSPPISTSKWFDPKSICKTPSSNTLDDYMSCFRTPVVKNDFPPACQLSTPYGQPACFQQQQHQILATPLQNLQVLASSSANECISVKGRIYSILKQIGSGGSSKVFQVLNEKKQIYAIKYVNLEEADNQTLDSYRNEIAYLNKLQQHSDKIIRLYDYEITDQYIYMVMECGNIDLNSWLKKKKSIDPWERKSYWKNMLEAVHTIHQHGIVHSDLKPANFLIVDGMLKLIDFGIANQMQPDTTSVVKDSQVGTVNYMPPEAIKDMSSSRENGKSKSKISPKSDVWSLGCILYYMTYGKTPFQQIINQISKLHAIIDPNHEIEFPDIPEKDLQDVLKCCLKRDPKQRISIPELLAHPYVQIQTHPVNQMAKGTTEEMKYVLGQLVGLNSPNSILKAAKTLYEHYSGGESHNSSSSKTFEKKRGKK

[2] = test system: colon cancer cells (HCT116); assay: Cancer cell line growth inhibition (SRB assay); assay type: cell-based; conditions: Homo sapiens, HCT-116; read-out: Cancer Cell Line GI50 Range HCT116
[3] = test system: ovarian cancer cells (PA-1); assay: Cancer cell line growth inhibition (SRB assay); assay type: cell-based; conditions: Homo sapiens, PA-1; read-out: Cancer Cell Line GI50 Range PA-1

Structure (SMILES)	IC50 [1]	GI50 [2]	GI50 [3]
O=C(NC(c1ccccn1)C1CCCC1)c1ccc2[nH]nc(-c3ccc(OC4CCN(C5COC5)CC4)cc3)c2c1 (stereo not drawn) [Example A319, N-(cyclopentyl(pyridin-2-yl)methyl)-3-(4-((1-(oxetan-3-yl)piperidin-4-yl)oxy)phenyl)-1H-indazole-5-carboxamide]	< 100 nM	100 to 500 nM	< 100 nM
CC(C)C(NC(=O)c1ccc2[nH]nc(-c3ccc(OC4CCN(C5COC5)CC4)cc3)c2c1)c1ccccn1 (stereo not drawn) [Example A327, N-(2-methyl-1-(pyridin-2-yl)propyl)-3-(4-((1-(oxetan-3-yl)piperidin-4-yl)oxy)phenyl)-1H-indazole-5-carboxamide]	< 100 nM	< 100 nM	< 100 nM
O=CN1CCC(Oc2ccc(-c3n[nH]c4ccc(C(=O)NC(c5ccsc5)C5CCC5)cc34)cc2)CC1 (stereo not drawn) [Example A330, N-(cyclobutyl(thiophen-3-yl)methyl)-3-(4-((1-formylpiperidin-4-yl)oxy)phenyl)-1H-indazole-5-carboxamide]	< 100 nM	< 100 nM	< 100 nM
CC(C)(O)C1CCN(c2ccc(-c3n[nH]c4ccc(C(=O)N[C@H](c5ccccn5)C5CC5)cc34)cc2)CC1 [Example A351, (S)-N-(cyclopropyl(pyridin-2-yl)methyl)-3-(4-(4-(2-hydroxypropan-2-yl)piperidin-1-yl)phenyl)-1H-indazole-5-carboxamide]	< 100 nM	< 100 nM	< 100 nM
O=C(N[C@@H](c1ccccn1)C1CC1)c1ccc2[nH]nc(-c3ccc(OC4CC5CCC(C4)N5C4COC4)cc3)c2c1 (stereo partly drawn) [Example A352, N-((R)-cyclopropyl(pyridin-2-yl)methyl)-3-(4-(((1R,3R,5S)-8-(oxetan-3-yl)-8-azabicyclo[3.2.1]octan-3-yl)oxy)phenyl)-1H-indazole-5-carboxamide]	< 100 nM	100 to 500 nM	100 to 500 nM
O=CN1C2CCC1CC(Oc1ccc(-c3n[nH]c4ccc(C(=O)N[C@@H](c5ccccn5)C5CC5)cc34)cc1)C2 (stereo partly drawn) [Example A353, N-((R)-cyclopropyl(pyridin-2-yl)methyl)-3-(4-(((1R,3R,5S)-8-formyl-8-azabicyclo[3.2.1]octan-3-yl)oxy)phenyl)-1H-indazole-5-carboxamide]	< 100 nM	< 100 nM	< 100 nM
C[C@H](O)C(=O)N1CCC(Oc2ccc(-c3n[nH]c4ccc(C(=O)N[C@H](c5ccccc5)C5CC5)cc34)cc2)CC1 [Example A377, N-((S)-cyclopropyl(phenyl)methyl)-3-(4-((1-((S)-2-hydroxypropanoyl)piperidin-4-yl)oxy)phenyl)-1H-indazole-5-carboxamide]	< 100 nM	100 to 500 nM	100 to 500 nM

Second part, the molecule after the results:

IC50 [1]	GI50 [2]	GI50 [3]	Structure (SMILES)
< 100 nM	< 100 nM	< 100 nM	CC(C)CC(NC(=O)c1ccc2[nH]nc(-c3ccc(OC4CCN(C5COC5)CC4)cc3)c2c1)c1ccccn1 (stereo not drawn) [Example A291, N-(3-methyl-1-(pyridin-2-yl)butyl)-3-(4-((1-(oxetan-3-yl)piperidin-4-yl)oxy)phenyl)-1H-indazole-5-carboxamide]
< 100 nM	100 to 500 nM	100 to 500 nM	O=C(NC(c1ccccn1)C1CCOCC1)c1ccc2[nH]nc(-c3ccc(OC4CCN(C5COC5)CC4)cc3)c2c1 (stereo not drawn) [Example A293, 3-(4-((1-(oxetan-3-yl)piperidin-4-yl)oxy)phenyl)-N-(pyridin-2-yl(tetrahydro-2H-pyran-4-yl)methyl)-1H-indazole-5-carboxamide]
< 100 nM	100 to 500 nM	100 to 500 nM	CC(C)[C@H](NC(=O)c1ccc2[nH]nc(-c3ccc(OC4CCN(C5COC5)CC4)nc3)c2c1)c1ccccc1Cl [Example A294, (S)-N-(1-(2-chlorophenyl)-2-methylpropyl)-3-(6-((1-(oxetan-3-yl)piperidin-4-yl)oxy)pyridin-3-yl)-1H-indazole-5-carboxamide]
